Assay results from patent publication US20220071952A1, “METHODS OF TREATING AND PREVENTING HEPATOTOXICITY” (Natreon, Inc., priority 2020, published 2022).
“And” between values parts separate entries of the source, which are not always exact repeats. Identical values can stand only once.

Experiments:
[1] = Body weight, food intake and water intake during alcohol-induced hepatotoxicity study (Example III); assay type: in vivo, Swiss Albino mice; conditions: for change in body weight / change in food intake / change in water intake: 10 mg/kg p.o. + alcohol, 15 days; for body weight / food intake / water intake: 10 mg/kg p.o. + alcohol 5 g/kg p.o. twice daily, mean ± SD
Protocol: Swiss Albino male and female mice weighing approximately 30±5 g, 2 month old mice were obtained from National Research Institute of Ayurveda for Drug Development (Govt. of India), Kolkata, and were housed in polypropylene cages at 22±3° C., relative air humidity of 45 to 55%, with 12.00 hr light & dark cycle (lighting on from 6:00 AM to 6:00 PM). Mice were provided a standard pellet chow diet (carbohydrate 65.5%, protein 17.6%, fat 6.6%) and distilled water ad libitum. The mice were acclimatized for one week in the laboratory conditions, before being used in the experiment. All experiments were conducted between 10.00 hr and 14.00 hr. Principles of laboratory animals care (NIH publication no. 85-23, revised 1985) were followed.
Vehicle control animals (“Con Veh”) were administered 0.3% CMC orally for 15 days.
Animals receiving ethanol (“Alc+0.3 CMC”, “3-OH-DBP+Alc”, “3,8-(OH)2-DBP+Alc”) were administered ethanol in 0.3% CMC orally as discussed above.
Results were expressed in terms of mean±SD (n=8). The data were subjected to one way ANOVA followed by Tukey's test using GraphPad Prism 4.0 software to establish statistical significance (*p<0.05, **p<0.01, ***p<0.001 vs. vehicle control; # p<0.05, ## p<0.01, ### p<0.001 vs. animals administered ethanol only).

[2] = tested on: CCl4-induced hepatotoxicity in mice; assay: Synergistic hepatoprotective activity of DBPs against CCl4-induced hepatotoxicity (Example IV); conditions: for ACP / ALP / ALT / AST / Total Protein: CCl4 1 ml/kg, mean ± SEM, n=4
[3] = tested on: paracetamol-induced hepatotoxicity in mice; assay: Paracetamol-induced hepatotoxicity in mice, serum biochemical parameters (Example I); assay type: in vivo, Swiss albino mice; conditions: for ALP / ALT / AST / Total Bilirubin / Total Protein / Triglyceride: 10 mg/kg p.o. + paracetamol 200 mg/kg p.o., 7 days, serum, mean ± SD, n=6
Excerpt: 3-OH-DBP (Natreon, Inc., New Brunswick, N.J., synthesized to 99% purity w/w) was in the form of a white free flowing powder. 3,8-(OH)2-DBP (Natreon, Inc., New Brunswick, N.J., synthesized to 99% purity w/w) was in the form of a pale green free flowing powder. Paracetamol (acetaminophen) was in the form of a white solid tablet.
Swiss albino mice of both sexes, weighing approximately 25-30 g, were obtained from National Research Institute of Ayurveda for Drug Development (Govt. of India), Kolkata, and were housed in polypropylene cages at 22±3° C., relative air humidity of 45 to 55%, with 12.00 hr light and dark cycle (lighting on from 6:00 AM to 6:00 PM). Mice were provided standard pellet chow (carbohydrate 65.5%, protein 17.6%, fat 6.6%) and distilled water ad libitum. The mice were acclimatized for one week in the above laboratory conditions, before being used in this experiment. All experiments were conducted between 10.00 hr and 14.00 hr. Principles of laboratory animal care (NIH publication no. 85-23, revised 1985) were followed.
The animals were randomly assigned into four groups of six animals each, as set out in Table 1. […] After 1 hr of last treatment, blood samples were collected and serum was separated.

[4] = female mice, doses 3-OH-DBP 2, 3,8-(OH)2-DBP 10, 1:5 combination 12 mg/kg b.w.
[5] = female mice, doses 3-OH-DBP 10, 3,8-(OH)2-DBP 50, 1:5 combination 60 mg/kg b.w.
[6] = male mice, doses 3-OH-DBP 2, 3,8-(OH)2-DBP 10, 1:5 combination 12 mg/kg b.w.
[7] = male mice, doses 3-OH-DBP 10, 3,8-(OH)2-DBP 50, 1:5 combination 60 mg/kg b.w.

O=c1oc2cc(O)ccc2c2ccc(O)cc12 [3,8-(OH)2-DBP, 3,8-dihydroxy-dibenzo-alpha-pyrone]
change in body weight ([1]; female mice): No significant change
change in food intake ([1]; female mice): No significant change
change in water intake ([1]; female mice): No significant change
body weight ([1]; female mice, Day 0): 25.17 ± 2.32 gm
food intake ([1]; female mice, Day 0): 8.52 ± 0.30 gm
water intake ([1]; female mice, Day 0): 4 ± 0.28 mL
body weight ([1]; female mice, Day 5): 23.5 ± 3.02 gm
food intake ([1]; female mice, Day 5): 8.78 ± 1.02 gm
water intake ([1]; female mice, Day 5): 4.01 ± 0.26 mL
body weight ([1]; female mice, Day 10): 23.67 ± 3.07 gm
food intake ([1]; female mice, Day 10): 16.44 ± 0.47 gm
water intake ([1]; female mice, Day 10): 2.32 ± 0.46 mL
body weight ([1]; female mice, Day 15): 22.83 ± 2.78 gm
food intake ([1]; female mice, Day 15): 16.12 ± 0.66 gm
water intake ([1]; female mice, Day 15): 2.15 ± 0.44 mL
change in body weight ([1]; male mice): No significant change
change in food intake ([1]; male mice): No significant change
change in water intake ([1]; male mice): No significant change
body weight ([1]; male mice, Day 0): 29.17 ± 2.79 gm
food intake ([1]; male mice, Day 0): 17.01 ± 0.75 gm
water intake ([1]; male mice, Day 0): 4.92 ± 0.45 mL
body weight ([1]; male mice, Day 5): 25 ± 3.29 gm
food intake ([1]; male mice, Day 5): 17.18 ± 0.85 gm
water intake ([1]; male mice, Day 5): 5.07 ± 0.61 mL
body weight ([1]; male mice, Day 10): 25.67 ± 2.66 gm
food intake ([1]; male mice, Day 10): 17.21 ± 1.11 gm
water intake ([1]; male mice, Day 10): 2.32 ± 0.31 mL
body weight ([1]; male mice, Day 15): 24.8 ± 2.93 gm
food intake ([1]; male mice, Day 15): 17.23 ± 1.16 gm
water intake ([1]; male mice, Day 15): 2.27 ± 0.33 mL
hepatoprotective activity (conclusion, Tables 19 and 20) ([2]; CCl4-induced hepatotoxicity, male and female mice): hepatoprotective activity in a dose dependent manner
ACP [2, 4]: 48 ± 4 (c) U/L
ALP [2, 4]: 89 ± 5.1 (c) IU/L
ALT [2, 4]: 68 ± 6.5 (c) IU/L
AST [2, 4]: 57 ± 8 (c) ^ IU/L
Total Protein [2, 4]: 4.9 ± 0.21 g/dL
ACP [2, 5]: 28 ± 5.1 (f) U/L
ALP [2, 5]: 68 ± 8 (f) ^ IU/L
ALT [2, 5]: 62 ± 3.6 (f) IU/L
AST [2, 5]: 41 ± 14^###(f) IU/L
Total Protein [2, 5]: 6.6 ± 0.16 g/dL
ACP, difference in values from CCl4 treated mice [2, 4]: B = (a-c = 32) U/L
ALP, difference in values from CCl4 treated mice [2, 4]: B = (a-c = 1) IU/L
ALT, difference in values from CCl4 treated mice [2, 4]: B = (a-c = 19) IU/L
AST, difference in values from CCl4 treated mice [2, 4]: B = (a-c = 48) IU/L
ACP, difference in values from CCl4 treated mice [2, 5]: E = (a-f = 52) U/L
ALP, difference in values from CCl4 treated mice [2, 5]: E = (a-f = 22) IU/L
ALT, difference in values from CCl4 treated mice [2, 5]: E = (a-f = 25) IU/L
AST, difference in values from CCl4 treated mice [2, 5]: E = (a-f = 64) IU/L
ACP [2, 6]: 48 ± 7.2***,#(c) U/L
ALP [2, 6]: 89 ± 5.1*,,#(c) IU/L
ALT [2, 6]: 68 ± 5.1 (c) IU/L
AST [2, 6]: 70 ± 4.4##(c) IU/L
Total Protein [2, 6]: 6.3 ± 0.36 g/dL
ACP [2, 7]: 46 ± 2.5 (f)^ U/L
ALP [2, 7]: 68 ± 8##(f) ^ IU/L
ALT [2, 7]: 60 ± 2.5 (f) IU/L
AST [2, 7]: 58 ± 1.9###(f)^ IU/L
Total Protein [2, 7]: 6 ± 0.40 g/dL
Relative liver weight ([2]; male mice, CCl4 study of Example IV): significantly increased
ACP, difference in values from CCl4 treated mice [2, 6]: B = (a-c = 38) U/L
ALP, difference in values from CCl4 treated mice [2, 6]: B = (a-c = 53) IU/L
ALT, difference in values from CCl4 treated mice [2, 6]: B = (a-c = 12) IU/L
AST, difference in values from CCl4 treated mice [2, 6]: B = (a-c = 33) IU/L
ACP, difference in values from CCl4 treated mice [2, 7]: E = (a-f = 20) U/L
ALP, difference in values from CCl4 treated mice [2, 7]: E = (a-f = 74) IU/L
ALT, difference in values from CCl4 treated mice [2, 7]: E = (a-f = 20) IU/L
AST, difference in values from CCl4 treated mice [2, 7]: E = (a-f = 45) IU/L
effect on paracetamol-induced hepatotoxicity (ALT, AST, triglyceride, bilirubin vs paracetamol group) ([3]; 10 mg/kg body weight, male (Table 2) and female (Table 3) mice): significantly attenuated and reversed the paracetamol-induced hepatotoxicity
hepatoprotective activity against paracetamol, comparison of both test compounds ([3]; female mice, 10 mg/kg orally for 7 days, paracetamol 200 mg/kg): almost the same hepatoprotective activity
ALP ([3]; female mice): 105.1 ± 12.40 IU/L
ALT ([3]; female mice): 76.91 ± 16.87 IU/L
AST ([3]; female mice): 51.76 IU/L and 51.76 ± 3.72 IU/L
Total Bilirubin ([3]; female mice): 0.58 ± 0.30 mg/dL
Total Protein ([3]; female mice): 5.41 ± 0.49 mg/dL
Triglyceride ([3]; female mice): 45.13 ± 0.80 mg/dL
ALP ([3]; male mice): 107.1 ± 19.11 IU/L
ALT ([3]; male mice): 95.97 ± 29.52 IU/L
AST ([3]; male mice): 85.75 ± 11.59 IU/L
Total Bilirubin ([3]; male mice): 0.48 ± 0.14 mg/dL
Total Protein ([3]; male mice): 5530 ± 230 mg/dL
Triglyceride ([3]; male mice): 57.06 ± 0.90 mg/dL
